Entries after “also recorded” stand apart in the source; their conditions may differ.

This experiment deals with target microorganisms. Briefly: Screen of synthesized peptides for binding to target microorganisms (targeting peptides, Tables 2 and 3). The following applies: microorganism(s) the targeting peptide was identified as binding to (Table 3). How it is done:
Once noted, these peptides were batch synthesized on a multiplex peptide synthesizer, yielding 5-10 mg of each peptide that could readily be screened for biological activity (e.g., binding activity and/or antimicrobial activity.
Other suitable targeting peptides include the peptides that have been identified as binding to particular target organisms as shown in Table 3 and/or Table 4.

Take “1T-44 (DPALADFAAGMRAQVRT; synthetic novel tartgeting peptide IT-44)”: the “Target(s)” value is “S. mutans; also recorded: S. aureus; also recorded: S. epidermidis; also recorded: C. jeikeium; also recorded: C. striatum; also recorded: P. aeruginosa”. “1T-102 (WKRLWPARILAGHSRRRMRWMVVWRYFAAT; synthetic novel tartgeting peptide IT-102)”: the “Target(s)” value is given as “A. naeslundii, F. nucleatum,; also recorded: P. gingivalis; also recorded: S. epidermidis,; also recorded: S. gordonii, S. mitis, S. mutans,; also recorded: S. oralis, S. salivarious,; also recorded: S. sanguinis”. With “1T-114 (RQAPGPGLVTITAACSAPGSRSR; synthetic novel tartgeting peptide IT-114)” the entry was “A. naeslundii, P. gingivalis; also recorded: S. epidermidis,; also recorded: S. gordonii, S. mitis, S. mutans,; also recorded: S. oralis, S. sanguinis”. For “1T-63 (EPLILKELVRNLFLFCYARALR; synthetic novel tartgeting peptide IT-63)” the value was “S. aureus; also recorded: S. epidermidis; also recorded: C. jeikeium; also recorded: C. xerosis; also recorded: C. striatum; also recorded: P. aeruginosa”; for “1T-141 (KKFIILLFILVQGLIFSATKTLSDIIAL; synthetic novel tartgeting peptide IT-141)”, “F. nucleatum, P. gingivalis; also recorded: S. epidermidis,; also recorded: S. gordonii, S. mitis, S. mutans,; also recorded: S. oralis, S. sanguinis”.

Regarding “1T-60 (YLTSLGLDAAEQAQGLLTILKG; synthetic novel tartgeting peptide IT-60)”, the “Target(s)” value is reported as “S. aureus; also recorded: S. epidermidis; also recorded: C. jeikeium; also recorded: C. striatum; also recorded: P. aeruginosa”.

In the case of “1T-55 (NHKTLKEWKAKWGPEAVESWATLLG; synthetic novel tartgeting peptide IT-55)”, the “Target(s)” value is “C. xerosis; also recorded: P. aeruginosa”. With “1T-154 (YFSFLEIVGMARR; synthetic novel tartgeting peptide IT-154)”, the “Target(s)” value was “P. gingivalis”. With “1T-56 (LALIGAGIWMIRKG; synthetic novel tartgeting peptide IT-56)” the entry was “C. xerosis; also recorded: P. aeruginosa”; with “1T-3 (VLGIAGGLDAYGELVGGN; synthetic novel tartgeting peptide IT-3)”, “S. mutans; also recorded: S. gordonii”. In the case of “1T-87 (EAVGQDLVDAHHP; synthetic novel tartgeting peptide IT-87)”, the “Target(s)” value is “S. mitis, S. mutans, S. oralis”.

In the case of “1T-32 (VSFLAGWLCLGLAAWRLGNA; synthetic novel tartgeting peptide IT-32)”, the “Target(s)” value is given as “S. mutans”. As to “1T-17 (NNAIVYIS; synthetic novel tartgeting peptide IT-17)”, the “Target(s)” value is reported as “S. mutans”.

In the case of “1T-148 (IVELDDTTILERALSMLGEANA; synthetic novel tartgeting peptide IT-148)”, the “Target(s)” value is “A. naeslundii, F. nucleatum,; also recorded: P. gingivalis,; also recorded: T. denticolaS. gordonii,; also recorded: S. mitis, S. mutans, S. oralis,; also recorded: S. salivarious, S. sanguinis”.

Take “1T-124 (LFDERNKIA; synthetic novel tartgeting peptide IT-124)”: the “Target(s)” value is “S. mitis, S. mutans, S. oralis”.

In the case of “1T-165 (CYDSFDFSIFVTFANRMKLSVGS; synthetic novel tartgeting peptide IT-165)”, the “Target(s)” value is on record as “A. naeslundii, F. nucleatum,; also recorded: P. gingivalis; also recorded: S. epidermidis,; also recorded: S. gordonii, S. mitis, S. mutans,; also recorded: S. oralis, S. salivarious,; also recorded: S. sanguinis”. For “1T-132 (YSKKLFEYFYFIIFILIRYLIFYKIIQNKNYYINNIAYN; synthetic novel tartgeting peptide IT-132)” the value was “A. naeslundii, F. nucleatum,; also recorded: P. gingivalis; also recorded: S. epidermidis,; also recorded: S. gordonii, S. mitis, S. mutans,; also recorded: S. oralis, S. salivarious,; also recorded: S. sanguinis”; for “1T-99 (MKAWLGQ; synthetic novel tartgeting peptide IT-99)”, “S. gordonii, S. mitis, S. mutans,; also recorded: S. oralis, S. sanguinis”; for “1T-66 (DTDCLSRAYAQRIDELDKQYAGIDKPL; synthetic novel tartgeting peptide IT-66)”, “S. mutans; also recorded: S. aureus; also recorded: S. epidermidis; also recorded: C. jeikeium; also recorded: C. xerosis; also recorded: C. striatum; also recorded: P. aeruginosa”. On to “1T-57 (RLEYRRLETQVEENPESGRRPMRG; synthetic novel tartgeting peptide IT-57)”, for which the “Target(s)” value is recorded as “P. aeruginosa”.

As for “1T-58 (CDDLHALERAGKLDALLSA; synthetic novel tartgeting peptide IT-58)”, the “Target(s)” value is given as “P. aeruginosa”. On to “1T-31 (NATGTDIGEVTLTLGRFS; synthetic novel tartgeting peptide IT-31)”, for which the “Target(s)” value was “S. mutans; also recorded: P. aeruginosa”. With “1T-59 (AVGNNLGKDNDSGHRGKKHRKHKHR; synthetic novel tartgeting peptide IT-59)” the entry was “S. aureus; also recorded: S. epidermidis; also recorded: P. aeruginosa”; with “1T-94 (DQVAHSGDMLVQARRRDS; synthetic novel tartgeting peptide IT-94)”, “S. mitis, S. mutans, S. oralis”; with “1T-151 (SVRAVKPIDEIVAWHFPGDFIVN; synthetic novel tartgeting peptide IT-151)”, “A. naeslundii, F. nucleatum,; also recorded: P. gingivalis,; also recorded: T. denticolaS. gordonii,; also recorded: S. mitis, S. mutans, S. oralis,; also recorded: S. salivarious, S. sanguinis”. In the case of “1T-34 (AFWLNILLTLLGYIPGIVHAVYIIAKR; synthetic novel tartgeting peptide IT-34)”, the “Target(s)” value is given as “S. aureus; also recorded: S. epidermidis; also recorded: C. jeikeium; also recorded: C. xerosis; also recorded: C. striatum; also recorded: P. aeruginosa”.

With “1T-74 (DIDWGRKISCAAGVAYGAIDGCATTV; synthetic novel tartgeting peptide IT-74)”, the “Target(s)” value is recorded as “S. pneumoniae”.

Turning to “1T-80 (GGNLGPGFGVIIP; synthetic novel tartgeting peptide IT-80)”, the “Target(s)” value is reported as “S. pneumoniae”. Turning to “1T-26 (LTILPTTFFAIIVPILAVAFIAYSGFKIKGIVEHKDQW; synthetic novel tartgeting peptide IT-26)”, the “Target(s)” value is “jeikeium; also recorded: C. xerosis; also recorded: C. striatum; also recorded: P. aeruginosa; also recorded: S. mutans; also recorded: S. aureus; also recorded: S. epidermidis; also recorded: Corynebacterium”. Consider “1T-89 (HEDDKRRGMSVEVLGFEVVQHEE; synthetic novel tartgeting peptide IT-89)”, for which the “Target(s)” value was “S. mitis, S. mutans”. With “1T-11 (RISE; synthetic novel tartgeting peptide IT-11)” the entry was “S. mutans; also recorded: S. epidermidis; also recorded: P. aeruginosa”; with “1T-38 (VMFVLTRGRSPRPMIPAY; synthetic novel tartgeting peptide IT-38)”, “S. mutans; also recorded: S. aereus; also recorded: S. epidermidis; also recorded: C. jeikeium; also recorded: C. xerosis; also recorded: C. striatum; also recorded: P. aeruginosa”; with “1T-84 (FRKKRYGLSILLWLNAFTNLVNSIHAFYMTLF; synthetic novel tartgeting peptide IT-84)”, “S. pneumoniae”. In the case of “1T-8 (FSVAACGEQRAVTFVLLIEDLI; synthetic novel tartgeting peptide IT-8)”, the “Target(s)” value is reported as “M. xanthus”. Consider “1T-24 (EEAEEKLAEVSQAVKRLVR; synthetic novel tartgeting peptide IT-24)”, for which the “Target(s)” value was “P. aeruginosa”. As for “1T-121 (FAKETGFGIGGAQEGWWIIADIYGPNPF; synthetic novel tartgeting peptide IT-121)”, the “Target(s)” value is recorded as “S. gordonii, S. mitis, S. mutans,; also recorded: S. oralis, S. salivarious,; also recorded: S. sanguinis”. In the case of “1T-82 (FGVGVGIALFMAGYAIGKDLRKKFGKSC; synthetic novel tartgeting peptide IT-82)”, the “Target(s)” value is on record as “S. pneumoniae”. With “1T-83 (QKPRKNETFIGYIQRYDIDGNGYQSLPCPQN; synthetic novel tartgeting peptide IT-83)” the entry was “S. pneumoniae”.

For the substance “1T-61 (HATLLPAVREAISRQLLPALVPRG; synthetic novel tartgeting peptide IT-61)”, the “Target(s)” value was “P. aeruginosa”. For the substance “1T-85 (VMASLTWRMRAASASLPTHSRTDA; synthetic novel tartgeting peptide IT-85)”, the “Target(s)” value is reported as “A. naeslundii, F. nucleatum,; also recorded: P. gingivalis; also recorded: S. epidermidis,; also recorded: S. gordonii, S. mitis, S. mutans,; also recorded: S. oralis, S. salivarious,; also recorded: S. sanguinis”. For the substance “1T-33 (VRTLTILVIFIFNYLKSISYKLKQPFENNLAQSMISI; synthetic novel tartgeting peptide IT-33)”, the “Target(s)” value is “S. aureus; also recorded: S. epidermidis; also recorded: C. jeikeium; also recorded: C. xerosis; also recorded: C. striatum; also recorded: P. aeruginosa”. As for “1T-108 (WGPLGPERPLW; synthetic novel tartgeting peptide IT-108)”, the “Target(s)” value was “S. gordonii, S. mitis, S. mutans,; also recorded: S. oralis, S. salivarious,; also recorded: S. sanguinis”.

As for “1T-70 (NRQAQGERAHGEQQG; synthetic novel tartgeting peptide IT-70)”, the “Target(s)” value is “S. aureus; also recorded: C. jeikeium; also recorded: P. aeruginosa”. With “1T-45 (WTKPSFTDLRLGFEVTLYFANR; synthetic novel tartgeting peptide IT-45)” the entry was “S. aureus; also recorded: S. epidermidis; also recorded: C. striatum; also recorded: P. aeruginosa”. For “1T-155 (LKLAFGVYPFQAMSQSDTAVSERNVLWR; synthetic novel tartgeting peptide IT-155)” the value was “A. naeslundii, F. nucleatum,; also recorded: P. gingivalis; also recorded: S. epidermidis,; also recorded: S. gordonii, S. mitis, S. mutans,; also recorded: S. oralis, S. salivarious,; also recorded: S. sanguinis”.

For the origin of these results see patent US8389679B2, “Targeted antimicrobial moieties” (priority 2009, dated 2013).
